The experiment has as its system INS1E cells. Format: cell-based, rat.

With `CC[C@H]1/C=C/C=C/C[C@@H](C)[C@H](O)[C@@](C)(O)C(=O)[C@@H](C)[C@H](O)[C@@H](C)C(=O)[C@@H](C)[C@H](O)[C@@H](C)/C=C/C(=O)O[C@@H]2[C@H](C)[C@H](CC1)O[C@]1(CC[C@H](C)[C@H](C[C@@H](C)O)O1)[C@H]2C` [oligomycin], the “portion of ADP stimulated respiration that is oligomycin sensitive” value is listed as roughly 75%. `C[C@@H]1CC[C@@]2(OC1)O[C@H]1[C@@H](O)[C@H]3[C@@H]4CC[C@H]5C[C@@H](O[C@@H]6O[C@H](CO)[C@H](O[C@@H]7O[C@H](CO)[C@@H](O)[C@H](O[C@@H]8OC[C@@H](O)[C@H](O)[C@H]8O)[C@H]7O[C@@H]7O[C@H](CO)[C@H](O)[C@H](O[C@@H]8O[C@H](CO)[C@@H](O)[C@H](O)[C@H]8O)[C@H]7O)[C@H](O)[C@H]6O)[C@H](O)C[C@]5(C)[C@H]4CC[C@]3(C)[C@H]1[C@@H]2C` [digitonin]: the “digitonin concentration giving maximal and sustained ADP-stimulated respiration” value worked out at 0.01%.

Values taken from patent US9915647B2 (priority 2011, dated 2018).
